Data as given in patent publication US20060069132A1, “Azolecarboxamide herbicides” (priority 2004, published 2006).

Tests used:
Assay in all cases: Test E pre-/postemergence herbicide test
bermudagrass = format: in vivo, Cynodon dactylon
How it was run: (§1)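 In this greenhouse assay, compounds in a solvent vehicle containing surfactant were applied pre- and postemergence, the latter to plants 2 to 18 cm high. Control was judged by eye after 12 to 14 days on a 0 to 100 scale.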

green foxtail = format: in vivo, Setaria viridis
How it was run: as §1

common ragweed = format: in vivo, Ambrosia elatior
How it was run: as §1

guineagrass = format: in vivo, Panicum maximum
How it was run: as §1

southern sandbur = format: in vivo, Cenchrus echinatus
How it was run: as §1

common sowthistle = format: in vivo, Sonchus oleraceous
How it was run: as §1

Italian ryegrass = format: in vivo, Lolium multiflorum
How it was run: as §1

field bindweed = format: in vivo, Convolvulus arvensis
How it was run: as §1

Russian thistle = format: in vivo, Salsola kali
How it was run: as §1

Canada horseweed = format: in vivo, Erigeron Canadensis; conditions: Preemergence
How it was run: as §1

[1] = Postemergence, 500 g ai/ha, scale 0 to 100
[2] = Postemergence, 250 g ai/ha, scale 0 to 100
[3] = Preemergence, 125 g ai/ha, scale 0 to 100
[4] = Preemergence, 250 g ai/ha, scale 0 (no effect) to 100 (complete control)
[5] = Preemergence, 375 g ai/ha, scale 0 (no effect) to 100 (complete control)
[6] = Preemergence, 500 g ai/ha, scale 0 (no effect) to 100 (complete control)
[7] = postemergence, 125 g ai/ha, scale 0 to 100
[8] = postemergence, 62 g ai/ha, scale 0 to 100
[9] = Preemergence, 62 g ai/ha, scale 0 to 100

Question: Which results are given for `CCn1nc(C(C)(C)C)cc1C(=O)Nc1cc(C(=S)N(C)C)ccc1F` [Compound 294]?
Answer: Plant response rating, Bermudagrass (bermudagrass; [1]): 75; Plant response rating, Bermudagrass (bermudagrass; [2]): 75; Plant response rating, Bermudagrass (bermudagrass; [3]): 90; Plant response rating, Bermudagrass (bermudagrass; [4]): 95; Plant response rating, Bermudagrass (bermudagrass; [5]): 95; Plant response rating, Bermudagrass (bermudagrass; [6]): 95; Plant response rating, Bermudagrass (bermudagrass; [7]): 50; Plant response rating, Bermudagrass (bermudagrass; [8]): 20; Plant response rating, Foxtail, Green (green foxtail; [1]): 85; Plant response rating, Foxtail, Green (green foxtail; [2]): 80; Plant response rating, Foxtail, Green (green foxtail; [3]): 80; Plant response rating, Foxtail, Green (green foxtail; [4]): 100; Plant response rating, Foxtail, Green (green foxtail; [5]): 100; Plant response rating, Foxtail, Green (green foxtail; [6]): 100; Plant response rating, Foxtail, Green (green foxtail; [7]): 60; Plant response rating, Foxtail, Green (green foxtail; [8]): 40; Plant response rating, Ragweed (common ragweed; [1]): 80; Plant response rating, Ragweed (common ragweed; [2]): 70; Plant response rating, Ragweed (common ragweed; [3]): 75; Plant response rating, Ragweed (common ragweed; [4]): 85; Plant response rating, Ragweed (common ragweed; [5]): 100; Plant response rating, Ragweed (common ragweed; [6]): 100; Plant response rating, Ragweed (common ragweed; [7]): 60; Plant response rating, Ragweed (common ragweed; [8]): 30; Plant response rating, Guineagrass (guineagrass; [1]): 85; Plant response rating, Guineagrass (guineagrass; [2]): 80; Plant response rating, Guineagrass (guineagrass; [3]): 90; Plant response rating, Guineagrass (guineagrass; [4]): 100; Plant response rating, Guineagrass (guineagrass; [5]): 100; Plant response rating, Guineagrass (guineagrass; [6]): 100; Plant response rating, Guineagrass (guineagrass; [7]): 70; Plant response rating, Guineagrass (guineagrass; [8]): 50; Plant response rating, Sandbur (southern sandbur; [1]): 80; Plant response rating, Sandbur (southern sandbur; [2]): 75; Plant response rating, Sandbur (southern sandbur; [3]): 70; Plant response rating, Sandbur (southern sandbur; [4]): 80; Plant response rating, Sandbur (southern sandbur; [5]): 95; Plant response rating, Sandbur (southern sandbur; [6]): 100; Plant response rating, Sandbur (southern sandbur; [7]): 50; Plant response rating, Sandbur (southern sandbur; [8]): 10; Plant response rating, Sowthistle (common sowthistle; [1]): 80; Plant response rating, Sowthistle (common sowthistle; [3]): 80; Plant response rating, Sowthistle (common sowthistle; [4]): 95; Plant response rating, Sowthistle (common sowthistle; [5]): 100; Plant response rating, Sowthistle (common sowthistle; [6]): 100; Plant response rating, Sowthistle (common sowthistle; [7]): 60; Plant response rating, Sowthistle (common sowthistle; [8]): 60; Plant response rating, Ryegrass, Italian (Italian ryegrass; [1]): 95; Plant response rating, Ryegrass, Italian (Italian ryegrass; [2]): 95; Plant response rating, Ryegrass, Italian (Italian ryegrass; [3]): 80; Plant response rating, Ryegrass, Italian (Italian ryegrass; [4]): 100; Plant response rating, Ryegrass, Italian (Italian ryegrass; [5]): 100; Plant response rating, Ryegrass, Italian (Italian ryegrass; [6]): 100; Plant response rating, Ryegrass, Italian (Italian ryegrass; [7]): 80; Plant response rating, Ryegrass, Italian (Italian ryegrass; [8]): 70; Plant response rating, Bindweed, Field (field bindweed; [1]): 70; Plant response rating, Bindweed, Field (field bindweed; [2]): 50; Plant response rating, Bindweed, Field (field bindweed; [3]): 10; Plant response rating, Bindweed, Field (field bindweed; [4]): 90; Plant response rating, Bindweed, Field (field bindweed; [5]): 95; Plant response rating, Bindweed, Field (field bindweed; [6]): 100; Plant response rating, Bindweed, Field (field bindweed; [7]): 50; Plant response rating, Bindweed, Field (field bindweed; [8]): 10; Plant response rating, Thistle (Russian thistle; [1]): 80; Plant response rating, Thistle (Russian thistle; [2]): 80; Plant response rating, Thistle (Russian thistle; [3]): 50; Plant response rating, Thistle (Russian thistle; [5]): 100; Plant response rating, Thistle (Russian thistle; [6]): 100

Question: Which results are given for `CCn1nc(C2(C)CC2)cc1C(=O)Nc1cc(C(=O)N(C)C)ccc1F` [Compound 299]?
Answer: Plant response rating, Bermudagrass (bermudagrass; [1]): 80; Plant response rating, Bermudagrass (bermudagrass; [2]): 70; Plant response rating, Bermudagrass (bermudagrass; [9]): 80; Plant response rating, Bermudagrass (bermudagrass; [3]): 100; Plant response rating, Bermudagrass (bermudagrass; [4]): 100; Plant response rating, Bermudagrass (bermudagrass; [6]): 95; Plant response rating, Bermudagrass (bermudagrass; [7]): 50; Plant response rating, Bermudagrass (bermudagrass; [8]): 40; Plant response rating, Foxtail, Green (green foxtail; [1]): 100; Plant response rating, Foxtail, Green (green foxtail; [2]): 85; Plant response rating, Foxtail, Green (green foxtail; [9]): 50; Plant response rating, Foxtail, Green (green foxtail; [3]): 100; Plant response rating, Foxtail, Green (green foxtail; [4]): 100; Plant response rating, Foxtail, Green (green foxtail; [6]): 100; Plant response rating, Foxtail, Green (green foxtail; [7]): 70; Plant response rating, Foxtail, Green (green foxtail; [8]): 30; Plant response rating, Ragweed (common ragweed; [1]): 90; Plant response rating, Ragweed (common ragweed; [2]): 70; Plant response rating, Ragweed (common ragweed; [9]): 20; Plant response rating, Ragweed (common ragweed; [3]): 85; Plant response rating, Ragweed (common ragweed; [4]): 90; Plant response rating, Ragweed (common ragweed; [6]): 100; Plant response rating, Ragweed (common ragweed; [7]): 60; Plant response rating, Ragweed (common ragweed; [8]): 30; Plant response rating, Guineagrass (guineagrass; [1]): 85; Plant response rating, Guineagrass (guineagrass; [2]): 75; Plant response rating, Guineagrass (guineagrass; [9]): 70; Plant response rating, Guineagrass (guineagrass; [3]): 85; Plant response rating, Guineagrass (guineagrass; [4]): 100; Plant response rating, Guineagrass (guineagrass; [6]): 100; Plant response rating, Guineagrass (guineagrass; [7]): 70; Plant response rating, Guineagrass (guineagrass; [8]): 60; Plant response rating, Sandbur (southern sandbur; [1]): 80; Plant response rating, Sandbur (southern sandbur; [2]): 70; Plant response rating, Sandbur (southern sandbur; [9]): 10; Plant response rating, Sandbur (southern sandbur; [3]): 60; Plant response rating, Sandbur (southern sandbur; [4]): 100; Plant response rating, Sandbur (southern sandbur; [6]): 100; Plant response rating, Sandbur (southern sandbur; [7]): 40; Plant response rating, Sandbur (southern sandbur; [8]): 30; Plant response rating, Sowthistle (common sowthistle; [2]): 95; Plant response rating, Sowthistle (common sowthistle; [9]): 100; Plant response rating, Sowthistle (common sowthistle; [3]): 100; Plant response rating, Sowthistle (common sowthistle; [4]): 100; Plant response rating, Sowthistle (common sowthistle; [6]): 95; Plant response rating, Sowthistle (common sowthistle; [7]): 85; Plant response rating, Sowthistle (common sowthistle; [8]): 30; Plant response rating, Ryegrass, Italian (Italian ryegrass; [1]): 85; Plant response rating, Ryegrass, Italian (Italian ryegrass; [2]): 85; Plant response rating, Ryegrass, Italian (Italian ryegrass; [9]): 70; Plant response rating, Ryegrass, Italian (Italian ryegrass; [3]): 95; Plant response rating, Ryegrass, Italian (Italian ryegrass; [4]): 100; Plant response rating, Ryegrass, Italian (Italian ryegrass; [6]): 100; Plant response rating, Ryegrass, Italian (Italian ryegrass; [7]): 80; Plant response rating, Ryegrass, Italian (Italian ryegrass; [8]): 60; Plant response rating, Bindweed, Field (field bindweed; [1]): 95; Plant response rating, Bindweed, Field (field bindweed; [2]): 80; Plant response rating, Bindweed, Field (field bindweed; [9]): 10; Plant response rating, Bindweed, Field (field bindweed; [3]): 60; Plant response rating, Bindweed, Field (field bindweed; [4]): 95; Plant response rating, Bindweed, Field (field bindweed; [6]): 100; Plant response rating, Bindweed, Field (field bindweed; [7]): 70; Plant response rating, Bindweed, Field (field bindweed; [8]): 30; Plant response rating, Thistle (Russian thistle; [1]): 90; Plant response rating, Thistle (Russian thistle; [2]): 70; Plant response rating, Thistle (Russian thistle; [3]): 100

Question: Which “Plant response rating, Bermudagrass” value (bermudagrass; [9]) does the source give for `CCc1nn(C(C)(C)C)nc1C(=O)Nc1cccc(C(=S)N(C)C)c1` [Compound 395] here?
Answer: 90

Question: What about the “Plant response rating, Bermudagrass” value (bermudagrass; [3]) of the same molecule?
Answer: 95

Question: What about the “Plant response rating, Bermudagrass” value (bermudagrass; [4]) of the same molecule?
Answer: 95

Question: And the “Plant response rating, Bermudagrass” value (bermudagrass; [6])?
Answer: 95

Question: And the “Plant response rating, Foxtail, Green” value (green foxtail; [9])?
Answer: 10

Question: What about the “Plant response rating, Foxtail, Green” value (green foxtail; [3]) of the same molecule?
Answer: 40

Question: And the “Plant response rating, Foxtail, Green” value (green foxtail; [4])?
Answer: 80

Question: What about the “Plant response rating, Foxtail, Green” value (green foxtail; [6]) of the same molecule?
Answer: 90

Question: What about the “Plant response rating, Ragweed” value (common ragweed; [9]) of the same molecule?
Answer: 10

Question: And the “Plant response rating, Ragweed” value (common ragweed; [3])?
Answer: 20

Question: And the “Plant response rating, Ragweed” value (common ragweed; [4])?
Answer: 60

Question: What about the “Plant response rating, Ragweed” value (common ragweed; [6]) of the same molecule?
Answer: 60

Question: What about the “Plant response rating, Guineagrass” value (guineagrass; [9]) of the same molecule?
Answer: 80

Question: What about the “Plant response rating, Guineagrass” value (guineagrass; [3]) of the same molecule?
Answer: 100

Question: What about the “Plant response rating, Guineagrass” value (guineagrass; [4]) of the same molecule?
Answer: 100

Question: And the “Plant response rating, Guineagrass” value (guineagrass; [6])?
Answer: 100

Question: What about the “Plant response rating, Sandbur” value (southern sandbur; [9]) of the same molecule?
Answer: 50

Question: What about the “Plant response rating, Sandbur” value (southern sandbur; [3]) of the same molecule?
Answer: 60

Question: What about the “Plant response rating, Sandbur” value (southern sandbur; [4]) of the same molecule?
Answer: 80

Question: And the “Plant response rating, Sandbur” value (southern sandbur; [6])?
Answer: 80

Question: And the “Plant response rating, Ryegrass, Italian” value (Italian ryegrass; [9])?
Answer: 20

Question: And the “Plant response rating, Ryegrass, Italian” value (Italian ryegrass; [3])?
Answer: 80

Question: What about the “Plant response rating, Ryegrass, Italian” value (Italian ryegrass; [4]) of the same molecule?
Answer: 90

Question: What about the “Plant response rating, Ryegrass, Italian” value (Italian ryegrass; [6]) of the same molecule?
Answer: 95

Question: What about the “Plant response rating, Horseweed” value (Canada horseweed; 62 g ai/ha, scale 0 to 100) of the same molecule?
Answer: 90

Question: And the “Plant response rating, Horseweed” value (Canada horseweed; 125 g ai/ha, scale 0 to 100)?
Answer: 100

Question: And the “Plant response rating, Horseweed” value (Canada horseweed; 250 g ai/ha, scale 0 (no effect) to 100 (complete control))?
Answer: 100

Question: What about the “Plant response rating, Horseweed” value (Canada horseweed; 500 g ai/ha, scale 0 (no effect) to 100 (complete control)) of the same molecule?
Answer: 100

Question: What about the “Plant response rating, Bindweed, Field” value (field bindweed; [9]) of the same molecule?
Answer: 10

Question: And the “Plant response rating, Bindweed, Field” value (field bindweed; [3])?
Answer: 40

Question: What about the “Plant response rating, Bindweed, Field” value (field bindweed; [4]) of the same molecule?
Answer: 60

Question: And the “Plant response rating, Bindweed, Field” value (field bindweed; [6])?
Answer: 70

Question: And the “Plant response rating, Thistle” value (Russian thistle; [6])?
Answer: 60
